Reference: PubChem BioAssay (NCI)
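Following 48 hours of exposure in 96-well plates, responses at five concentrations were used to interpolate endpoints linearly. Definition used: TGI = concentration required for complete inhibition of growth.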

Key:
Test in all cases: NCI tumour cell line growth inhibition, 48 h
DLD-1 colon = system: DLD-1 colon
DMS 114 small cell lung = system: DMS 114 small cell lung
DMS 273 small cell lung = system: DMS 273 small cell lung
EKVX NSCLC = system: EKVX NSCLC
HCT-116 colon = system: HCT-116 colon
HOP-18 NSCLC = system: HOP-18 NSCLC
IGROV1 ovarian = system: IGROV1 ovarian
KM20L2 colon = system: KM20L2 colon
MALME-3M melanoma = system: MALME-3M melanoma
NCI-H522 lung = system: NCI-H522 lung
P388 leukemia = system: P388 leukemia
SN12C renal = system: SN12C renal
SN12K1 renal = system: SN12K1 renal
SNB-78 CNS = system: SNB-78 CNS
DU-145 prostate = system: DU-145 prostate
HS 578T breast = system: HS 578T breast
MDA-MB-231 breast = system: MDA-MB-231 breast
MDA-MB-435 = system: MDA-MB-435
PC-3 prostate = system: PC-3 prostate
T-47D breast = system: T-47D breast

Row | Structure (SMILES) | TGI (DLD-1 colon) [µM] | TGI (DMS 114 small cell lung) [µM] | TGI (DMS 273 small cell lung) [µM] | TGI (EKVX NSCLC) [µM] | TGI (HCT-116 colon) [µM] | TGI (HOP-18 NSCLC) [µM] | TGI (IGROV1 ovarian) [µM] | TGI (KM20L2 colon) [µM] | TGI (MALME-3M melanoma) [µM] | TGI (NCI-H522 lung) [µM] | TGI (P388 leukemia) [µM] | TGI (SN12C renal) [µM] | TGI (SN12K1 renal) [µM] | TGI (SNB-78 CNS) [µM] | TGI (DU-145 prostate) [µM] | TGI (HS 578T breast) [µM] | TGI (MDA-MB-231 breast) [µM] | TGI (MDA-MB-435) [µM] | TGI (PC-3 prostate) [µM] | TGI (T-47D breast) [µM]
1 | CCCn1cc2c3c(cccc31)C1C=C(C)CN(C)C1C2 (centres undefined) | 54.3 | 43.1 | 47.3 | 48 | 38.5 | 50.5 | 60.4 | 38.8 | 55.5 | 57.1 | 28.5 | 60.9 | 44.1 | 73.4 |  |  |  |  |  | 
2 | CCOC(=O)c1csc(NC(=O)CCN2CCN(C)CC2)n1 |  |  |  |  |  |  |  |  |  |  |  |  |  |  | > 100 | > 100 | > 100 | > 100 | > 100 | > 100
3 | COc1cc(N=Nc2ccc(OC)c(S(=O)(=O)O)c2)c(C)cc1N=Nc1ccc(/C=C/c2ccc(N=[N+]([O-])c3ccc(/C=C/c4ccc(N=Nc5cc(C)c(N=Nc6ccc(OC)c(S(=O)(=O)O)c6)cc5OC)cc4S(=O)(=O)O)c(S(=O)(=O)O)c3)cc2S(=O)(=O)O)c(S(=O)(=O)O)c1 | > 100 | > 100 | > 100 | > 100 | > 100 | > 100 | > 100 | > 100 | > 100 | > 100 | > 100 | > 100 | > 100 | > 100 |  |  |  |  |  | 
